# Source: US12605401B2, “Polymers, compositions and methods for treating hyperuricemia” (WATERSTONE PHARMACEUTICALS (WUHAN) CO., LTD., priority 2021, dated 2026)
# System: chronic hyperuricemia model rats
# Experiment: Chronic hyperuricemia model, adenine + ethambutol, 21 days; serum UA, CREA, UREA
# Type: in vivo
# Procedure: 48 rats were randomly divided into 6 groups with 8 rats in each group. The groups were as follows: Blank Group (Vehicle, ig), Model Group (Vehicle, ig), Positive control group (Allopurinol, 10 mg/kg, ig), Compound 1 group (Sevelamer carbonate, 250 mg/kg, ig), Compound 2 low-dose group (TAA polymer, 50 mg/kg, ig), Compound 2 high-dose group (TAA polymer, 250 mg/kg, ig). Except for blank group, rats in other groups were modeled according to the chronic modeling method. The modeling method was as follows: rats were given Adenine (100 mg/kg)+Ethambutol (250 mg/kg) by gavage, once a day, for 21 days. Animals in blank group and model group were given equal volume of normal saline by gavage. Animals in positive control group were given positive 10 mg/kg Alloalcohol, once in the first week, once in the second week, once a day for 3 days before sampling in the third week. Animals in other groups were given intragastric administration once a day for 14 consecutive days from the 8th day of modeling. Blood samples were taken at Day 21 after modeling, and serum samples were separated and stored at −80° C. for biochemical detection.
# After 21 days of modeling (14 days of drug treatment), blood samples were taken and serum separation was performed to detect three renal functions (UA, CREA and UREA) (See Table 1 and FIGS. 2a, 2b and 2c). Compound 1 is Sevelamer carbonate and Compound 2 is a graft polytriallylamine with 50% molar percentage of the moiety to the tertiary amine in polytriallylamine.
smiles,measurement,setting,value
Oc1ncnc2[nH]ncc12 [Allopurinol],"CREA, effect in words","10 mg/kg ig, day 21",significantly reduced
same,"UA, effect in words","10 mg/kg ig, day 21",significantly reduced
same,"UREA, effect in words","10 mg/kg ig, day 21",significantly reduced
same,"CREA and UREA, conclusion in words (protective effect on the kidney)",conclusion over the dose groups,can decrease
